In patent US9840500B2, “Compounds as dual inhibitors of histone methyltransferases and DNA methyltransferases” (FUNDACIÓN PARA LA INVESTIGACIÓN MÉDICA APLICADA, priority 2014, dated 2017):

Key:
Format in all cases: cell-based
Hep3B = assay: Cell proliferation assay, Hep3B (HCC); settings: Homo sapiens, 48 hours of treatment, Table 3
H460 = assay: Cell proliferation assay, H460 (non-small-cell lung cancer); settings: Homo sapiens, NCI-H460, 48 hours
Protocol: (§1) Cell proliferation was analyzed after 48 hours of in vitro treatment using the CellTiter 96 Aqueous One Solution Cell Proliferation Assay (Promega, Madison, Wis.). This is a colorimetric method for determining the number of viable cells in proliferation.
(§2) For the assay, suspension cells were cultured by triplicate at a density of 1×10^6 cells/ml in 96-well plates (100.000 cells/well, 100 μl/well), except for OCILY-3 and OCILY-10 cell lines which were cultured at a density of 0.5×10^6 cells/ml (50.000 cells/well, 100 μl/well) and for HepG2, Hep3B and PLC/PRF/5 cell ines which were cultured at a density of 3000 cells/well, 100 μl/well). Adherent cells were obtained from 80-90% confluent flasks and 100 μl of cells were seeded at a density of 5000 cells/well in 96-well plates by triplicate. Before addition of the compounds, adherent cells were allowed to attach to the bottom of the wells for 12 hours. […]
(§3) After 48 hours of treatment, plates with suspension cells were centrifuged at 800 g for 10 minutes and medium was removed. […] After 1-3 hours of incubation at 37° C., absorbance was measured at 490 nm in a 96-well plate reader. The background absorbance was measured in wells with only cell line medium and solution reagent. Data was calculated as a percentage of total absorbance of treated cell/absorbance of non treated cells. […]

HepG2 = assay: Cell proliferation assay, HepG2 (HCC); settings: Homo sapiens, 48 hours of treatment, Table 3
WM-35 = assay: Cell proliferation assay, WM-35 (Melanoma); settings: WM35, 48 hours
Protocol: as §1, §2, §3

SK-MEL-147 = assay: Cell proliferation assay, SK-MEL-147 (Melanoma); settings: Homo sapiens, 48 hours
Protocol: as §1, §2, §3

451-LU = assay: Cell proliferation assay, 451-LU (Melanoma); settings: 48 hours
Protocol: as §1, §2, §3

U266 = assay: Cell proliferation assay, U266 (MM); settings: Homo sapiens, U-266, Table 5 comparison
Protocol: as §1
(§4) For the assay, suspension cells were cultured by triplicate at a density of 1×10^6 cells/ml in 96-well plates (100.000 cells/well, 100 μl/well), except for OCILY-3 and OCILY-10 cell lines which were cultured at a density of 0.5×10^6 cells/ml (50.000 cells/well, 100 μl/well) and for HepG2, Hep3B and PLC/PRF/5 cell ines which were cultured at a density of 3000 cells/well, 100 μl/well). Adherent cells were obtained from 80-90% confluent flasks and 100 μl of cells were seeded at a density of 5000 cells/well in 96-well plates by triplicate. Before addition of the compounds, adherent cells were allowed to attach to the bottom of the wells for 12 hours. In all cases, only the 60 inner wells were used to avoid any border effects.
(§5) After 48 hours of treatment, plates with suspension cells were centrifuged at 800 g for 10 minutes and medium was removed. The plates with adherent cells were flicked to remove medium. Then, cells were incubated with 100 ul/well of medium and 20 ul/well of CellTiter 96 Aqueous One Solution reagent. After 1-3 hours of incubation at 37° C., absorbance was measured at 490 nm in a 96-well plate reader. The background absorbance was measured in wells with only cell line medium and solution reagent. Data was calculated as a percentage of total absorbance of treated cell/absorbance of non treated cells.

PC3 = assay: Cell proliferation assay, PC3 (Prostate); settings: Homo sapiens, PC-3, 48 hours
Protocol: as §1, §2, §3

JJN3 = assay: Cell proliferation assay, JJN3 (MM); settings: Homo sapiens, JJN-3, Table 5 comparison
Protocol: as §1, §4, §5

MOLM-13 = assay: Cell proliferation assay, MOLM-13 (AML); settings: Homo sapiens, 48 hours
Protocol: as §1, §2, §3

MV411 = assay: Cell proliferation assay, MV411 / MV4-11 (AML); settings: Homo sapiens
Protocol: as §1, §4, §5
Compounds 3-04 and 3-07 were tested against different solid tumour and oncohematological cell lines using the cell proliferation protocol described above.

RT112 = assay: Cell proliferation assay, RT112 (Bladder); settings: Homo sapiens, RT-112, 48 hours
Protocol: as §1, §2, §3

UM-UC-7 = assay: Cell proliferation assay, UM-UC-7 (Bladder); settings: 48 hours
Protocol: as §1, §2, §3

HCT-116 = assay: Cell proliferation assay, HCT-116 (Colorectal); settings: Homo sapiens, 48 hours
Protocol: as §1, §2, §3

COLO-205 = assay: Cell proliferation assay, COLO-205 (Colorectal); settings: Homo sapiens, 48 hours
Protocol: as §1, §2, §3

DU145 = assay: Cell proliferation assay, DU145 (Prostate); settings: Homo sapiens, DU-145, 48 hours
Protocol: as §1, §2, §3

LOVO = assay: Cell proliferation assay, LOVO (Colorectal); settings: Homo sapiens, 48 hours
Protocol: as §1, §2, §3

HELA = assay: Cell proliferation assay, HELA (Cervical); settings: Homo sapiens, 48 hours
Protocol: as §1, §2, §3

UACC-62 = assay: Cell proliferation assay, UACC-62 (Melanoma); settings: Homo sapiens, 48 hours
Protocol: as §1, §2, §3

OCI-Ly3 = assay: Cell proliferation assay, OCI-Ly3 (ABC-DLBCL); settings: Homo sapiens, 48 hours of treatment, Table 3
MGH-U3 = assay: Cell proliferation assay, MGH-U3 (Bladder); settings: 48 hours
Protocol: as §1, §2, §3

MCF-7 = assay: Cell proliferation assay, MCF-7 (Breast); settings: Homo sapiens, MCF7, 48 hours
Protocol: as §1, §2, §3

U87-MG = assay: Cell proliferation assay, U87-MG (Glioblastoma); settings: Homo sapiens, U-87 MG, 48 hours
Protocol: as §1, §2, §3

A498 = assay: Cell proliferation assay, A498 (Renal); settings: Homo sapiens, 48 hours
Protocol: as §1, §2, §3

Sk-Hep1 = assay: Cell proliferation assay, Sk-Hep1 (Hepatocarcinoma); settings: Homo sapiens, 48 hours
Protocol: as §1, §2, §3

MGH-U4 = assay: Cell proliferation assay, MGH-U4 (Bladder); settings: 48 hours
Protocol: as §1, §2, §3

LAL-CUN-2 = assay: Cell proliferation assay, LAL-CUN-2 (ALL)
HCC95 = assay: Cell proliferation assay, HCC95 (small-cell lung cancer); settings: Homo sapiens, non-small-cell lung cancer, 48 hours
Protocol: as §1, §2, §3

PLC/PRF/5 = assay: Cell proliferation assay, PLC/PRF/5 (HCC); settings: Homo sapiens, 48 hours of treatment, Table 3
SU8686 = assay: Cell proliferation assay, SU8686 (Pancreas); settings: Homo sapiens, SU.86.86, 48 hours
Protocol: as §1, §2, §3

SK-MEL-103 = assay: Cell proliferation assay, SK-MEL-103 (Melanoma); settings: Homo sapiens, 48 hours
Protocol: as §1, §2, §3

SMILES | GI50 (Hep3B) [nM] | GI50 (H460) [nM] | GI50 (HepG2) [nM] | GI50 (WM-35) [nM] | GI50 (SK-MEL-147) [nM] | GI50 (451-LU) [nM] | GI50 (U266) [nM] | GI50 (PC3) [nM] | GI50 (JJN3) [nM] | GI50 (MOLM-13) [nM] | GI50 (MV411; MV4-11, 48 hours, Table 4) [nM] | GI50 (MV411; MV4-11, Table 5 comparison) [nM] | GI50 (RT112) [nM] | GI50 (UM-UC-7) [nM] | GI50 (HCT-116) [nM] | GI50 (COLO-205) [nM] | GI50 (DU145) [nM] | GI50 (LOVO) [nM] | GI50 (HELA) [nM] | GI50 (UACC-62) [nM] | other results
COc1cc2c(NC3CCN(C)CC3)cc(-c3ccc(C)o3)nc2cc1OCCCN1CCCC1.O=C(O)C(F)(F)F [Compound 3-04, 6-methoxy-2-(5-methyl-2-furyl)-N-(1-methyl-4-piperidyl)-7-(3-pyrrolidin-1-ylpropoxy)quinolin-4-amine; 2,2,2-trifluoroacetic acid] | 100 to 1000 | 100 to 1000 | 100 to 1000 | 100 to 1000 | 100 to 1000 | 100 to 1000 | 1000 to 10000 | 100 to 1000 | 1000 to 10000 | 100 to 1000 | 100 to 1000 | 100 to 1000 | 100 to 1000 | 100 to 1000 | 100 to 1000 | 100 to 1000 | 100 to 1000 | 1000 to 10000 | 100 to 1000 | 100 to 1000 | GI50 (OCI-Ly3): 100 to 1000 nM; GI50 (MGH-U3): 100 to 1000 nM; GI50 (MCF-7): 100 to 1000 nM; GI50 (U87-MG): 100 to 1000 nM; GI50 (A498): > 10000 nM; GI50 (Sk-Hep1): 100 to 1000 nM; GI50 (MGH-U4): 100 to 1000 nM; GI50 (LAL-CUN-2; 48 hours of treatment, Table 3): 100 to 1000 nM; GI50 (LAL-CUN-2; ALL, Table 5 comparison): 100 to 1000 nM; GI50 (HCC95): 100 to 1000 nM; GI50 (PLC/PRF/5): 100 to 1000 nM; GI50 (SU8686): 1000 to 10000 nM; GI50 (SK-MEL-103): 100 to 1000 nM
COc1cc2c(NCC3CCN(C)CC3)cc(-c3ccc(C)o3)nc2cc1OCCCN1CCCC1 [Compound 3-07] | 100 to 1000 | 100 to 1000 | 100 to 1000 | 100 to 1000 | ≤ 100 | ≤ 100 | 1000 to 10000 | 100 to 1000 | 1000 to 10000 | 1000 to 10000 | 100 to 1000 | 100 to 1000 | 100 to 1000 | 100 to 1000 | 100 to 1000 | 100 to 1000 | 100 to 1000 | 100 to 1000 | 100 to 1000 | 100 to 1000 | GI50 (OCI-Ly3): 100 to 1000 nM; GI50 (MGH-U3): 100 to 1000 nM; GI50 (MCF-7): 1000 to 10000 nM; GI50 (U87-MG): 100 to 1000 nM; GI50 (A498): 100 to 1000 nM; GI50 (Sk-Hep1): 100 to 1000 nM; GI50 (MGH-U4): 100 to 1000 nM; GI50 (LAL-CUN-2; 48 hours of treatment, Table 3): 100 to 1000 nM; GI50 (LAL-CUN-2; ALL, Table 5 comparison): 100 to 1000 nM; GI50 (HCC95): 100 to 1000 nM; GI50 (PLC/PRF/5): 100 to 1000 nM; GI50 (SU8686): 100 to 1000 nM; GI50 (SK-MEL-103): ≤ 100 nM
